Test [1] concerns tissue homogenates of nerve from neuropathic animals. Briefly: PAL cross-linking to nerve tissue homogenates and gel separation. The class given is binding. The text has this:
Using a ligand driven approach, the present inventors utilized the photo-activatable cross-linking PAL from Evotec A.G. (Photo-Activated Labelling) technology that derivatizes the active cyclic peptides to allow UV-induced cross-linking to binding targets (described herein as peptide/SEQ ID NO:X-PAL). This allows subsequent detection in cells, gels of tissue isolates or in pull-down of the peptide/target complex for sequencing by mass spectroscopy (PALMS).
LAT9991-PAL was cross-linked to tissue homogenates of nerve from neuropathic animals.

In the next test the test system is A549 cells. Briefly: Confocal imaging of LAT9991F-PAL binding and LANCL1 co-localization, with siRNA knockdown and competitors, in A549 cells. The class given is cell-based. The settings on record: SiLANCL1 A549 cells; competitor 25 μM. The protocol: (§1) A photoactivatable analog of LAT8881 (LAT9991F (SEQ ID NO:13)-PAL), was used to conduct the experiments. A549 or NCI-H358 cells were treated with LAT9991F-PAL at 2.5 μM during 30 minutes. Fluorescent signal was recorded after that LAT9991F-PAL was immobilized on its target(s) site by UV-crosslinking and the LAT9991F-PAL-target complexes were labeled with the green-fluorescent Alexa Fluor 488 alkyne dye by click-chemistry. Control cells were treated with the vehicle, dimethyl sulfoxide (DMSO), and with LAT9991F-PAL in combination with a large excess of the parent drug LAT8881 or other competitors, GSH, NSC61610 or ABA to evaluate, respectively, the non-specific fluorescent background and the specificity of the staining. For colocalization experiments, subsequently, immunofluorescence staining with an anti-LANCL1 or LANCL2 antibodies and an Alexa 568 (red) conjugated secondary antibody was performed. Images stacks of cells labeled with probes were collected and evaluated for the degree of colocalization of LAT9991F-PAL-target complexes and LANCL1 or LANCL2 using either the Measure Colocalization plugin in Metamorph or the JACoP plugin in ImageJ).
(§2) A549 or NCI-H358 cells (ATCC CCL-185 and ATCC CRL-5807, respectively) were cultured in appropriate medium containing 10% heat-inactivated FBS (Dutscher, #SV30160-036), 1% penicillin/streptomycin (Gibco, #15140-122) and maintained in a humidified 37° C. incubator with 5% CO2.
(§3) LAT9991F-PAL was dissolved in DMSO to make a 10 mM stock solution. Intermediate solutions at 25 μM and 2.5 μM were made in the culture medium from the 10 mM stock solutions of LAT8881 and LAT9991F-PAL, respectively. A two-fold dilution into PBS of each intermediate solution was used for cell treatment. A stock solution at 10 mM was prepared for the other competitors as GSH, NSC61610 and ABA. A final concentration at 25 μM was used for the assay.
(§4) A549 or NCI-H358 cells were seeded onto ibidiTreat Polymer Coverslips (Ibidi, #80826) at 2.5×10^5 cells/cm^2 in 200 μl of complete medium. After 24 hours, the medium was removed and cells were washed with PBS (Gibco, #10010049) and then pre-treated with the Taxol at 1 μM for 3 hours or with H2O2 25 μM for 2 hours. Cells were washed twice with PBS. Induced stress cells or control cells were then exposed to LAT9991F-PAL (2.5 μM) in PBS for 30 minutes, in the presence or absence of LAT8881 (25 μM), or the other compounds used as a competitor, and pre-incubated 10 minutes. After treatment, cells were washed with cold PBS and UV-irradiated (365 nm) in PBS for 20 min. After fixation with 4% paraformaldehyde and permeabilization (0.5% Triton/PBS) (Image-iT™ Fixation/Permeabilization Kit, ThermoFisher, #R37602), the bioorthogonal reaction with Alexa Fluor 488 Alkyne (1 μM) (ThermoFisher, #A10267) was performed at 25° C. using the Click-iT™ Cell Reaction Buffer Kit (ThermoFisher, #C10269) according to the manufacturer protocol. After click reaction, cells were washed twice with PBS, blocked with 3% BSA in PBS for 1 hour and stained with Hoechst 33342 dye (ThermoFisher, #H1399).
(§5) For colocalization experiments, cells were further incubated overnight at 4° C. with a mouse anti-LanCL1 antibody (Invitrogen, PAS-57-107) (dilution 1:1000) or LanCL2 (Atlas Antibodies HPA019711) (dilution 1:1000) in 3% BSA in PBS, washed twice with PBS, and then incubated respectively with a goat anti-mouse […] (Molecular Probes, #A21467) (dilution 1:800) for 1 h in 3% BSA in PBS. After three further washing steps with PBS, cells were embedded in Ibidi Mounting Medium (ibidi, #50001). The specimens were kept at 4° C. in the dark until analysis.
Images were acquired on an Axiovert200M (Zeiss) microscope using a CSU-W1 Yokogawa confocal unit. This microscope is equipped with a plan Apochromat X40 dry objective numerical aperture (NA) 0.95 and a Neofluar X100 oil immersion objective NA 1.45. Images were capture with an EMCCD camera (Prior, ProEM 1024×1024).

A further test deals with NCI-H358 cells. Briefly: Confocal imaging of LAT9991F-PAL binding and LANCL1 co-localization, with siRNA knockdown and competitors, in NCI-H358 cells. The settings on record: SiLANCL1 NCI-H358 cells; competitor 25 μM. The class given is cell-based. The protocol: as §1, §2, §3
ibidiTreat Polymer Coverslips (Ibidi, #80826) were coated with serum during 1 hour at 37° C., followed by Laminin (100 μg\ml) (incubation for 1 hour at 37° C.) for NCI-H358 cells.
as §4, §5
Images were acquired on an Axiovert200M (Zeiss) microscope using a CSU-W1 Yokogawa confocal unit.

“Also recorded” adds a separate entry of the source. Bridges are numbered along the chain shown (N, C = ends). Where no end group is shown, it is not given here.

On to “LAT9991-PAL: cyclic peptide of SEQ ID NO:12 (LAT9991) conjugated to the PAL (Photo-Activated Labelling) grouping (CRSVEGSCG; disulfide 1-8 (inferred); also: PAL group on N-terminal Cys-Arg part)”, for which the “Cross-linking of PAL probe to tissue homogenates of nerve from neuropathic animals” value in test [1] is reported as “cross-linked; also recorded: shown to cross-link”. The “Molecular weight ranges of targets stained after gel separation” value in test [1] (FIG. 3 legend, LAT9991-PAL 5 μM) is 12-15 kDa, 37 kDa and 40-50 kDa; in test [1] (PAL probe cross-linked to nerve homogenates), “˜12-15 kD, ˜37 kD and ˜50 kD”.
Consider “YLRIVQCRSVEGSCGF [LAT8881, a cyclic peptide fragment of human growth hormone]”, for which the “Competition of LAT9991F-PAL binding by excess competitor” value in the test on A549 cells and in the test with NCI-H358 cells was “partially competed off” in each case.

The values are drawn from patent publication US20230064978A1, “CYCLIC PEPTIDE RECEPTOR LANTHIONINE SYNTHETASE C-LIKE PROTEIN (LANCL) AND USES THEREOF” (LATERAL IP PTY LTD, priority 2019, published 2023).
